Measurements taken from US11026426B2, “Oxadiazole and phenol derivatives as antibacterial and/or herbicidal agents” (NORTHERN ILLINOIS RESEARCH FOUNDATION, priority 2017, dated 2021).
Read-outs that look alike come from different tables or passages of the source.

Experiments:
Micrococcus luteus [1] = test: Antibacterial assay zone of inhibition Ml; assay type: cell-based
Pseudomonas aeruginosa [2] = test: Antibacterial assay zone of inhibition Pa; assay type: cell-based
[3] = tested on: Burkholderia thailandensis; assay type: cell-based
Corynebacterium xerosis [4] = test: Antibacterial assay zone of inhibition Cx; assay type: cell-based
Klebsiella pneumonia [5] = test: Antibacterial assay zone of inhibition Kp; assay type: cell-based
Bacillus cereus [6] = test: Antibacterial assay zone of inhibition Bc; assay type: cell-based
[7] = tested on: Corynebacterium pseudodiphtheriae; test: Antibacterial assay zone of inhibition Cp; assay type: cell-based
Escherichia coli [8] = test: Antibacterial assay zone of inhibition Ec; assay type: cell-based
Mycobacterium smegmatis [9] = test: Antibacterial assay zone of inhibition Ms; assay type: cell-based
[10] = molecular target: Lycopersicon esculentum IspE (LeIspE) (Solanum lycopersicum, UniProt P93841); test: Thermal shift assay against LeIspE; assay type: binding
[11] = tested on: Burkholderia thailandensis; assay type: cell-based; conditions: preliminary screening, score 0-3
AtIspD = AtIspD (Arabidopsis thaliana, UniProt P69834); test: University of Hamburg photometric enzymatic inhibition assay AtIspD; assay type: biochemical; conditions: read-out: AtIspD IC50
Procedure: (§1) Compounds were subjected to a photometric enzymatic assay to test for inhibition of the plant enzymes Arabidopsis thaliana IspD and IspF, and IspE from Lycopersicon esculentum.
The procedure for AtIspD enzymatic inhibition assay, was performed by making an assay mixture of 100 mM Tris hydrochloride at pH 8.0 with 10 mM MgCl2, 1 mM dithiothreitol, 2.5 mM potassium phosphoenol pyruvate, 2.1 mM CTP, 2 mM ATP, 1 mM of (2R,3S)-2,3-dihydroxy-4-oxopentyl phosphate, 460 μM NADH, 1.1% (v/v) DMSO, 0.4 U IspE, 1 U lactate dehydrogenase, 1 U pyruvate kinase and 2.4 mU IspD in 180 μL of solution. Solutions were incubated at 27° C. and monitored photometrically. By preparing the assay mixture with a large excess of IspE compared to IspD, any inhibition of IspE by the test inhibitor would be insignificant compared to IspD and therefore the rate of the reaction is determined by IspD activity.

lettuce seeds = test: Lettuce leaf assay; assay type: in vivo; design: key: 0 (no effect); 5(complete inhibition or bleaching); conditions: ranking 0-5
Text: The lettuce leaf assay is a qualitative assay used to determine the relative effectiveness of the test compounds at inhibition of germination of seeds and root development as well as causing bleaching of leaves. Isoprenoid synthesis is vital in plants as isoprene-product gibberellins are a class of growth hormones in plants responsible for stimulating cell elongation and division. In addition, some carotenoids are involved in photosynthesis as components of the electron transport chain. MEP pathway inhibitors have the potential to prevent synthesis of these necessary cellular components and growth hormones resulting in inhibition of germination and root development as well as causing chlorosis, or bleaching in the leaves. The lettuce leaf assay, explores the effects of compounds as potential MEP pathway inhibitors by evaluating the effect on bleaching, root development, and germination of lettuce seeds, which all rely on isoprenoid biosynthesis. […] The assay is a qualitative assay and the effects are given rankings from 0 (no effect) to 5 (complete inhibition or bleaching). In this assay, compounds are dissolved in a volatile organic solvent and applied to filter paper in a petri dish. The solvent is allowed to evaporate and lettuce seeds are applied followed by the addition of 5 mL of water to obtain the necessary concentrations. Seeds are allowed to grow and they are observed on day 3 and day 4 for evaluation.

Mycobacterium smegmatis [12] = test: Antibacterial preliminary screening MS; assay type: cell-based; conditions: score 0-3; note: key: 0 represents no inhibition; 3 is comparable to commercial antibiotic control
Klebsiella pneumonia [13] = test: Antibacterial preliminary screening KP; assay type: cell-based; conditions: score 0-3; note: key: 0 represents no inhibition; 3 is comparable to commercial antibiotic control
[14] = molecular target: T1, Mycobacterium tuberculosis IspD (MtIspD) (Mycobacterium tuberculosis, UniProt P9WKG9); test: Thermal shift assay against MtIspD; assay type: binding
T1 sequence (P9WKG9 1-231): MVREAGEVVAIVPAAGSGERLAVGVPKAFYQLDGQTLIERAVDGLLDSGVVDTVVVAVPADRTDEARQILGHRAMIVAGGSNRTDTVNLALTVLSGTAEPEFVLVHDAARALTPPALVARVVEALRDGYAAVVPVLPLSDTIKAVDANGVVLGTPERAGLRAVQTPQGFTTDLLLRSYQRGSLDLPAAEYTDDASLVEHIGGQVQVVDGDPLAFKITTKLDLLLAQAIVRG

Bacillus cereus [15] = test: Antibacterial preliminary screening BC; assay type: cell-based; conditions: score 0-3; note: key: 0 represents no inhibition; 3 is comparable to commercial antibiotic control
Escherichia coli [16] = test: Antibacterial preliminary screening EC; assay type: cell-based; conditions: score 0-3; note: key: 0 represents no inhibition; 3 is comparable to commercial antibiotic control
[17] = tested on: Corynebacterium pseudodiphtheriae; test: Antibacterial preliminary screening CP; assay type: cell-based; conditions: score 0-3;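 note: 0 is no inhibition and 3 matches the commercial antibiotic control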
Pseudomonas aeruginosa [18] = test: Antibacterial preliminary screening PA; assay type: cell-based; conditions: score 0-3; note: key: 0 represents no inhibition; 3 is comparable to commercial antibiotic control
AtIspF = AtIspF (Arabidopsis thaliana, UniProt Q9CAK8); test: University of Hamburg photometric enzymatic inhibition assay AtIspF; assay type: biochemical; conditions: read-out: AtIspF IC50
Procedure: as §1
The IspF assay mixture conditions were as follows: 100 mM Tris hydrochloride at pH 8.0 with 10 mM MgCl2, 1 mM dithiothreitol, 2.5 mM potassium phosphoenol pyruvate, 2 mM ATP, 1 mM of 4-diphosphocytidyl-2C methylerythritol 2-phosphate, 460 μM NADH, 1.1% (v/v) DMSO, 0.5 U CMP kinase, 2.4 mU IspF, 1 U lactate dehydrogenase, 1 U pyruvate kinase in 180 μL of solution. Solutions were incubated at 27° C. and monitored photometrically.

LeIspE = LeIspE (Solanum lycopersicum, UniProt P93841); test: University of Hamburg photometric enzymatic inhibition assay LeIspE; assay type: biochemical, Lycopersicon esculentum; conditions: read-out: LeIspE IC50
Procedure: as §1
The IspE assay conditions were very similar to the IspD assay in which the assay mixture was composed of 100 mM Tris hydrochloride at pH 8.0 with 10 mM MgCl2, 1 mM dithiothreitol, 2.5 mM potassium phosphoenol pyruvate, 2 mM ATP, 1 mM of 4-Diphosphocytidyl-2-C-methylerythritol, 460 μM NADH, 1.1% (v/v) DMSO, 2.4 mU IspE, 1 U lactate dehydrogenase, 1 U pyruvate kinase in 180 μL of solution. Solutions were incubated at 27° C. and monitored photometrically.

Micrococcus luteus [19] = test: Antibacterial preliminary screening ML; assay type: cell-based; conditions: score 0-3; note: key: 0 represents no inhibition; 3 is comparable to commercial antibiotic control
Corynebacterium xerosis [20] = test: Antibacterial preliminary screening CX; assay type: cell-based; conditions: score 0-3; note: key: 0 represents no inhibition; 3 is comparable to commercial antibiotic control

Sequence of AtIspD (P69834 62-302): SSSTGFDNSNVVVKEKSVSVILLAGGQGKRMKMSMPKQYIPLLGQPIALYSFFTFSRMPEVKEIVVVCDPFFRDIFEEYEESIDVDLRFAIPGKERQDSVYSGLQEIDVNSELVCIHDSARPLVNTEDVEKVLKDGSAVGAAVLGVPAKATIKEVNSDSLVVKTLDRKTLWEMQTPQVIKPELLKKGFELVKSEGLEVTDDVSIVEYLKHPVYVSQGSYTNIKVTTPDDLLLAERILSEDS
Sequence of Lycopersicon esculentum IspE (LeIspE) (P93841 89-401): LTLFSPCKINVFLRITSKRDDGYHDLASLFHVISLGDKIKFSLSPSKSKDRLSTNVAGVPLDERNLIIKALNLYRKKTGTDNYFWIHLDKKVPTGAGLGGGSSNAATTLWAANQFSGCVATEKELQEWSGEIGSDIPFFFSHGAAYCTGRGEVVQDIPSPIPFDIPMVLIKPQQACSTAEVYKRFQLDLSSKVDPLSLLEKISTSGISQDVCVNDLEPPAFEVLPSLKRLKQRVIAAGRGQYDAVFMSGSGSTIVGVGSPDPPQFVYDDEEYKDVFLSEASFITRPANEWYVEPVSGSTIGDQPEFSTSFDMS
Sequence of LeIspE (P93841 89-401): as above
Sequence of AtIspF (Q9CAK8 53-231): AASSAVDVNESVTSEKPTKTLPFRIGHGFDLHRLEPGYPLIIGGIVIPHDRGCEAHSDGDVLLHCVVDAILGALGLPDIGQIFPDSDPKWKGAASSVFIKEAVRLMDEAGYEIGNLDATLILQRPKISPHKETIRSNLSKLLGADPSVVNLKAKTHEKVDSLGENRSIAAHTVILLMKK

Clc1cccc(OCc2nnc(-c3nc4ccccc4s3)o2)c1 [HGN-835]
Antibacterial Ml zone of inhibition (Micrococcus luteus [1]; 0.1 mM): 0 millimeters | Antibacterial Ml zone of inhibition (Micrococcus luteus [1]; 0.5 mM): 0 millimeters | Antibacterial Ml zone of inhibition (Micrococcus luteus [1]; 1 mM): 14 millimeters | Antibacterial Pa zone of inhibition (Pseudomonas aeruginosa [2]; 0.1 mM): 0 millimeters | Antibacterial Pa zone of inhibition (Pseudomonas aeruginosa [2]; 0.5 mM): 0 millimeters | Antibacterial Pa zone of inhibition (Pseudomonas aeruginosa [2]; 1 mM): 0 millimeters | Antibacterial Bt zone of inhibition ([3]; 0.1 mM): 0 12.5 18 millimeters | Antibacterial Bt zone of inhibition ([3]; 0.5 mM): 0 12.5 18 millimeters | Antibacterial Bt zone of inhibition ([3]; 1 mM): 0 12.5 18 millimeters | Antibacterial Cx zone of inhibition (Corynebacterium xerosis [4]; 0.1 mM): 0 millimeters | Antibacterial Cx zone of inhibition (Corynebacterium xerosis [4]; 0.5 mM): 0 millimeters | Antibacterial Cx zone of inhibition (Corynebacterium xerosis [4]; 1 mM): 0 millimeters | Antibacterial Kp zone of inhibition (Klebsiella pneumonia [5]; 0.1 mM): 0 millimeters | Antibacterial Kp zone of inhibition (Klebsiella pneumonia [5]; 0.5 mM): 14 millimeters | Antibacterial Kp zone of inhibition (Klebsiella pneumonia [5]; 1 mM): 18 millimeters | Antibacterial Bc zone of inhibition (Bacillus cereus [6]; 0.1 mM): 0 millimeters | Antibacterial Bc zone of inhibition (Bacillus cereus [6]; 0.5 mM): 14 millimeters | Antibacterial Bc zone of inhibition (Bacillus cereus [6]; 1 mM): 20 millimeters | Antibacterial Cp zone of inhibition ([7]; 0.1 mM): 0 millimeters | Antibacterial Cp zone of inhibition ([7]; 0.5 mM): 0 millimeters | Antibacterial Cp zone of inhibition ([7]; 1 mM): 0 millimeters | Antibacterial Ec zone of inhibition (Escherichia coli [8]; 0.1 mM): 0 millimeters | Antibacterial Ec zone of inhibition (Escherichia coli [8]; 0.5 mM): 0 millimeters | Antibacterial Ec zone of inhibition (Escherichia coli [8]; 1 mM): 0 millimeters | Antibacterial Ms zone of inhibition (Mycobacterium smegmatis [9]; 0.1 mM): 0 millimeters | Antibacterial Ms zone of inhibition (Mycobacterium smegmatis [9]; 0.5 mM): 0 millimeters | Antibacterial Ms zone of inhibition (Mycobacterium smegmatis [9]; 1 mM): 0 millimeters

Clc1ccc(CCc2nnc(-c3nc4ccccc4s3)o2)c(Cl)c1 [HGN-824]
Antibacterial Ml zone of inhibition (Micrococcus luteus [1]; 0.1 mM): 0 millimeters | Antibacterial Ml zone of inhibition (Micrococcus luteus [1]; 0.5 mM): 0 millimeters | Antibacterial Ml zone of inhibition (Micrococcus luteus [1]; 1 mM): 0 millimeters | Antibacterial Pa zone of inhibition (Pseudomonas aeruginosa [2]; 0.1 mM): 0 millimeters | Antibacterial Pa zone of inhibition (Pseudomonas aeruginosa [2]; 0.5 mM): 0 millimeters | Antibacterial Pa zone of inhibition (Pseudomonas aeruginosa [2]; 1 mM): 0 millimeters | Antibacterial Bt zone of inhibition ([3]; 0.1 mM): 0 millimeters | Antibacterial Bt zone of inhibition ([3]; 0.5 mM): 0 millimeters | Antibacterial Bt zone of inhibition ([3]; 1 mM): 0 millimeters | Antibacterial Cx zone of inhibition (Corynebacterium xerosis [4]; 0.1 mM): 0 millimeters | Antibacterial Cx zone of inhibition (Corynebacterium xerosis [4]; 0.5 mM): 0 millimeters | Antibacterial Cx zone of inhibition (Corynebacterium xerosis [4]; 1 mM): 0 millimeters | Antibacterial Kp zone of inhibition (Klebsiella pneumonia [5]; 0.1 mM): 0 millimeters | Antibacterial Kp zone of inhibition (Klebsiella pneumonia [5]; 0.5 mM): 0 millimeters | Antibacterial Kp zone of inhibition (Klebsiella pneumonia [5]; 1 mM): 0 millimeters | Antibacterial Bc zone of inhibition (Bacillus cereus [6]; 0.1 mM): 0 millimeters | Antibacterial Bc zone of inhibition (Bacillus cereus [6]; 0.5 mM): 0 millimeters | Antibacterial Bc zone of inhibition (Bacillus cereus [6]; 1 mM): 0 millimeters | Antibacterial Cp zone of inhibition ([7]; 0.1 mM): 0 millimeters | Antibacterial Cp zone of inhibition ([7]; 0.5 mM): 0 millimeters | Antibacterial Cp zone of inhibition ([7]; 1 mM): 10 millimeters | Antibacterial Ec zone of inhibition (Escherichia coli [8]; 0.1 mM): 0 millimeters | Antibacterial Ec zone of inhibition (Escherichia coli [8]; 0.5 mM): 0 millimeters | Antibacterial Ec zone of inhibition (Escherichia coli [8]; 1 mM): 0 millimeters | Antibacterial Ms zone of inhibition (Mycobacterium smegmatis [9]; 0.1 mM): 0 millimeters | Antibacterial Ms zone of inhibition (Mycobacterium smegmatis [9]; 0.5 mM): 12 millimeters | Antibacterial Ms zone of inhibition (Mycobacterium smegmatis [9]; 1 mM): 18 millimeters

c1ccc(-c2cccc(-c3nnc(-c4cc5ccccc5[nH]4)o3)c2)cc1 [HGN-287, 2-([1,1′-biphenyl]-3-yl)-5-(1H-indol-2-yl)-1,3,4-oxadiazole]
LeIspE melting point change [10]: −0.25 °C | LeIspE melting temp [10]: 49.25 °C | BT score [11]: 0 | IC50 (AtIspD): 501 ± 82 µM | Bleaching (lettuce seeds; 0.15 mM): 0 | Germination (lettuce seeds; 0.15 mM): 0 | Root Dev. (lettuce seeds; 0.15 mM): 0 | Bleaching (lettuce seeds; 0.3 mM): 0 | Germination (lettuce seeds; 0.3 mM): 0 | Root Dev. (lettuce seeds; 0.3 mM): 0 | MS score (Mycobacterium smegmatis [12]): 0 | KP score (Klebsiella pneumonia [13]): 0 | MtIspD melting point change [14]: 0.5 °C | MtIspD melting temp [14]: 48.5 °C | BC score (Bacillus cereus [15]): 0 | EC score (Escherichia coli [16]): 0 | CP score [17]: 0 | PA score (Pseudomonas aeruginosa [18]): 0 | IC50 (AtIspF): > 1000 µM | IC50 (LeIspE): > 1000 µM | ML score (Micrococcus luteus [19]): 0 | CX score (Corynebacterium xerosis [20]): 0

c1ccc(-c2ccc(-c3nnc(-c4cc5ccccc5[nH]4)o3)cc2)cc1 [HGN-288, 2-([1,1′-biphenyl]-4-yl)-5-(1H-indol-2-yl)-1,3,4-oxadiazole]
LeIspE melting point change [10]: −1.50 °C | LeIspE melting temp [10]: 48.00 °C | BT score [11]: 0 | IC50 (AtIspD): 255 ± 35 µM | Bleaching (lettuce seeds; 0.1 mM): 0 | Germination (lettuce seeds; 0.1 mM): 0 | Root Dev. (lettuce seeds; 0.1 mM): 0 | Bleaching (lettuce seeds; 0.2 mM): 0 | Germination (lettuce seeds; 0.2 mM): 0 | Root Dev. (lettuce seeds; 0.2 mM): 0 | MS score (Mycobacterium smegmatis [12]): 0 | KP score (Klebsiella pneumonia [13]): 0 | MtIspD melting point change [14]: 1.0 °C | MtIspD melting temp [14]: 49.0 °C | BC score (Bacillus cereus [15]): 0 | EC score (Escherichia coli [16]): 0 | CP score [17]: 0 | PA score (Pseudomonas aeruginosa [18]): 0 | IC50 (AtIspF): > 1000 µM | IC50 (LeIspE): > 1000 µM | ML score (Micrococcus luteus [19]): 0 | CX score (Corynebacterium xerosis [20]): 0

COc1ccc(-c2nnc(-c3cc4ccccc4[nH]3)o2)cc1 [HGN-223, 2-(1H-indol-2-yl)-5-(4-methoxyphenyl)-1,3,4-oxadiazole]
LeIspE melting point change [10]: −0.25 °C | LeIspE melting temp [10]: 49.25 °C | BT score [11]: 0 | IC50 (AtIspD): 209 ± 29 µM | Bleaching (lettuce seeds; 0.5 mM): 0 | Germination (lettuce seeds; 0.5 mM): 1 | Root Dev. (lettuce seeds; 0.5 mM): 0 | Bleaching (lettuce seeds; 1.0 mM): 0 | Germination (lettuce seeds; 1.0 mM): 4 | Root Dev. (lettuce seeds; 1.0 mM): 0 | MS score (Mycobacterium smegmatis [12]): 0 | KP score (Klebsiella pneumonia [13]): 0 | MtIspD melting point change [14]: 0.0 °C | MtIspD melting temp [14]: 48.0 °C | BC score (Bacillus cereus [15]): 0 | EC score (Escherichia coli [16]): 0 | CP score [17]: 0 | PA score (Pseudomonas aeruginosa [18]): 0 | IC50 (AtIspF): > 1000 µM | IC50 (LeIspE): 126 ± 12 µM | ML score (Micrococcus luteus [19]): 0 | CX score (Corynebacterium xerosis [20]): 0
